Converted amounts (≈) assume the structure as drawn.
System: Escherichia coli
Assay: minimum inhibitory concentration (MIC)
Method: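 Broth microdilution MIC (Sensititre BOPO7F bovine plate, CLSI methods) of 19 antimicrobials against field isolates of P. multocida, M. haemolytica, H. somni (deep nasopharyngeal swabs) and E. coli, Enterococcus spp. (rectal swabs) from weaned dairy heifers. Incubation 16-24 h at 35 C. MIC is the lowest concentration preventing visible growth. Values with <= or > lie at the tested range limits. Trimethoprim-sulfamethoxazole is given as the trimethoprim component of a 1:19 mixture.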

CCC[C@@H]1C[C@@H](C(=O)N[C@@H]([C@H]2O[C@H](SC)[C@H](O)[C@@H](O)[C@H]2O)[C@H](C)Cl)N(C)C1 [Clindamycin]
Conditions | minimum inhibitory concentration [µg/mL]
isolate (source animal id): 8 | > 16
isolate (source animal id): 9 | > 16
isolate (source animal id): 10 | > 16
isolate (source animal id): 11 | > 16
isolate (source animal id): 12 | > 16
isolate (source animal id): 13 | > 16
isolate (source animal id): 14 | > 16
isolate (source animal id): 15 | > 16
isolate (source animal id): 16 | > 16
isolate (source animal id): 98 | > 16
isolate (source animal id): 99 | > 16
isolate (source animal id): 100 | > 16
isolate (source animal id): 101 | > 16
isolate (source animal id): 102 | > 16
isolate (source animal id): 103 | > 16
isolate (source animal id): 104 | > 16
isolate (source animal id): 105 | > 16
isolate (source animal id): 106 | > 16
isolate (source animal id): 107 | > 16
isolate (source animal id): 108 | > 16
isolate (source animal id): 109 | > 16
isolate (source animal id): 110 | > 16
isolate (source animal id): 111 | > 16
isolate (source animal id): 112 | > 16
isolate (source animal id): 113 | > 16
isolate (source animal id): 114 | > 16
isolate (source animal id): 115 | > 16
isolate (source animal id): 116 | > 16
isolate (source animal id): 117 | > 16
isolate (source animal id): 118 | > 16
isolate (source animal id): 119 | > 16
isolate (source animal id): 120 | > 16
isolate (source animal id): 121 | > 16
isolate (source animal id): 122 | > 16
isolate (source animal id): 123 | > 16
isolate (source animal id): 124 | > 16
isolate (source animal id): 125 | > 16
isolate (source animal id): 126 | > 16
isolate (source animal id): 127 | > 16
isolate (source animal id): 128 | > 16
isolate (source animal id): 129 | > 16
isolate (source animal id): 130 | > 16
isolate (source animal id): 131 | > 16
isolate (source animal id): 132 | > 16
isolate (source animal id): 133 | > 16
isolate (source animal id): 134 | > 16
isolate (source animal id): 135 | > 16
isolate (source animal id): 136 | > 16
isolate (source animal id): 137 | > 16
isolate (source animal id): 138 | > 16
isolate (source animal id): 139 | > 16
isolate (source animal id): 140 | > 16
isolate (source animal id): 141 | > 16
isolate (source animal id): 142 | > 16
isolate (source animal id): 143 | > 16
isolate (source animal id): 144 | > 16
isolate (source animal id): 145 | > 16
isolate (source animal id): 146 | > 16
isolate (source animal id): 147 | > 16
isolate (source animal id): 148 | > 16
isolate (source animal id): 149 | > 16
isolate (source animal id): 150 | > 16
isolate (source animal id): 151 | > 16
isolate (source animal id): 152 | > 16
isolate (source animal id): 153 | > 16
isolate (source animal id): 154 | > 16
isolate (source animal id): 155 | > 16
isolate (source animal id): 156 | > 16
isolate (source animal id): 157 | > 16
isolate (source animal id): 158 | > 16
isolate (source animal id): 159 | > 16
isolate (source animal id): 160 | > 16
isolate (source animal id): 161 | > 16
isolate (source animal id): 162 | > 16
isolate (source animal id): 163 | > 16
isolate (source animal id): 164 | > 16
isolate (source animal id): 165 | > 16
isolate (source animal id): 166 | > 16
isolate (source animal id): 167 | > 16
isolate (source animal id): 168 | > 16
isolate (source animal id): 169 | > 16
isolate (source animal id): 170 | > 16
isolate (source animal id): 171 | > 16
isolate (source animal id): 172 | > 16
isolate (source animal id): 173 | > 16
isolate (source animal id): 174 | > 16
isolate (source animal id): 175 | > 16
isolate (source animal id): 176 | > 16
isolate (source animal id): 177 | > 16
isolate (source animal id): 178 | > 16
isolate (source animal id): 179 | > 16
isolate (source animal id): 180 | > 16
isolate (source animal id): 181 | > 16
isolate (source animal id): 182 | > 16
isolate (source animal id): 183 | > 16
isolate (source animal id): 184 | > 16
isolate (source animal id): 185 | > 16
isolate (source animal id): 186 | > 16
isolate (source animal id): 187 | > 16
isolate (source animal id): 188 | > 16

CN1C[C@@H]2C[C@H]1CN2c1cc2c(cc1F)c(=O)c(C(=O)O)cn2C1CC1 [Danofloxacin]
Conditions | minimum inhibitory concentration [µg/mL]
isolate (source animal id): 8 | ≤ 0.12
isolate (source animal id): 9 | > 1
isolate (source animal id): 10 | ≤ 0.12
isolate (source animal id): 11 | ≤ 0.12
isolate (source animal id): 12 | > 1
isolate (source animal id): 13 | ≤ 0.12
isolate (source animal id): 14 | 0.5 (≈ 1.4 µM)
isolate (source animal id): 15 | ≤ 0.12
isolate (source animal id): 16 | ≤ 0.12
isolate (source animal id): 98 | ≤ 0.12
isolate (source animal id): 99 | ≤ 0.12
isolate (source animal id): 100 | ≤ 0.12
isolate (source animal id): 101 | ≤ 0.12
isolate (source animal id): 102 | ≤ 0.12
isolate (source animal id): 103 | ≤ 0.12
isolate (source animal id): 104 | ≤ 0.12
isolate (source animal id): 105 | ≤ 0.12
isolate (source animal id): 106 | > 1
isolate (source animal id): 107 | ≤ 0.12
isolate (source animal id): 108 | ≤ 0.12
isolate (source animal id): 109 | ≤ 0.12
isolate (source animal id): 110 | ≤ 0.12
isolate (source animal id): 111 | > 1
isolate (source animal id): 112 | ≤ 0.12
isolate (source animal id): 113 | > 1
isolate (source animal id): 114 | ≤ 0.12
isolate (source animal id): 115 | 1 (≈ 2.8 µM)
isolate (source animal id): 116 | > 1
isolate (source animal id): 117 | ≤ 0.12
isolate (source animal id): 118 | 0.5 (≈ 1.4 µM)
isolate (source animal id): 119 | > 1
isolate (source animal id): 120 | 1 (≈ 2.8 µM)
isolate (source animal id): 121 | ≤ 0.12
isolate (source animal id): 122 | ≤ 0.12
isolate (source animal id): 123 | ≤ 0.12
isolate (source animal id): 124 | > 1
isolate (source animal id): 125 | ≤ 0.12
isolate (source animal id): 126 | > 1
isolate (source animal id): 127 | ≤ 0.12
isolate (source animal id): 128 | ≤ 0.12
isolate (source animal id): 129 | 1 (≈ 2.8 µM)
isolate (source animal id): 130 | ≤ 0.12
isolate (source animal id): 131 | > 1
isolate (source animal id): 132 | 0.5 (≈ 1.4 µM)
isolate (source animal id): 133 | ≤ 0.12
isolate (source animal id): 134 | ≤ 0.12
isolate (source animal id): 135 | ≤ 0.12
isolate (source animal id): 136 | ≤ 0.12
isolate (source animal id): 137 | 1 (≈ 2.8 µM)
isolate (source animal id): 138 | > 1
isolate (source animal id): 139 | 0.25 (≈ 0.7 µM)
isolate (source animal id): 140 | ≤ 0.12
isolate (source animal id): 141 | ≤ 0.12
isolate (source animal id): 142 | ≤ 0.12
isolate (source animal id): 143 | 1 (≈ 2.8 µM)
isolate (source animal id): 144 | > 1
isolate (source animal id): 145 | ≤ 0.12
isolate (source animal id): 146 | 0.5 (≈ 1.4 µM)
isolate (source animal id): 147 | > 1
isolate (source animal id): 148 | 0.25 (≈ 0.7 µM)
isolate (source animal id): 149 | ≤ 0.12
isolate (source animal id): 150 | ≤ 0.12
isolate (source animal id): 151 | ≤ 0.12
isolate (source animal id): 152 | ≤ 0.12
isolate (source animal id): 153 | ≤ 0.12
isolate (source animal id): 154 | 0.5 (≈ 1.4 µM)
isolate (source animal id): 155 | ≤ 0.12
isolate (source animal id): 156 | 0.5 (≈ 1.4 µM)
isolate (source animal id): 157 | ≤ 0.12
isolate (source animal id): 158 | ≤ 0.12
isolate (source animal id): 159 | ≤ 0.12
isolate (source animal id): 160 | ≤ 0.12
isolate (source animal id): 161 | ≤ 0.12
isolate (source animal id): 162 | > 1
isolate (source animal id): 163 | ≤ 0.12
isolate (source animal id): 164 | ≤ 0.12
isolate (source animal id): 165 | ≤ 0.12
isolate (source animal id): 166 | ≤ 0.12
isolate (source animal id): 167 | ≤ 0.12
isolate (source animal id): 168 | ≤ 0.12
isolate (source animal id): 169 | ≤ 0.12
isolate (source animal id): 170 | ≤ 0.12
isolate (source animal id): 171 | ≤ 0.12
isolate (source animal id): 172 | ≤ 0.12
isolate (source animal id): 173 | ≤ 0.12
isolate (source animal id): 174 | ≤ 0.12
isolate (source animal id): 175 | ≤ 0.12
isolate (source animal id): 176 | ≤ 0.12
isolate (source animal id): 177 | ≤ 0.12
isolate (source animal id): 178 | ≤ 0.12
isolate (source animal id): 179 | ≤ 0.12
isolate (source animal id): 180 | ≤ 0.12
isolate (source animal id): 181 | ≤ 0.12
isolate (source animal id): 182 | ≤ 0.12
isolate (source animal id): 183 | ≤ 0.12
isolate (source animal id): 184 | ≤ 0.12
isolate (source animal id): 185 | ≤ 0.12
isolate (source animal id): 186 | ≤ 0.12
isolate (source animal id): 187 | ≤ 0.12
isolate (source animal id): 188 | > 1

— the supplement of paper PMC8612539
